Among the data in US20050165028A1, “Vanilloid receptor ligands and their use in treatments” (priority 2004, published 2005) are melting point values, retold here.

As a reminder, the melting point is the temperature of the solid-liquid transition. Take `O=C(Nc1ccc2c(c1)OCCO2)c1ccc(-c2cccs2)cc1` [Example 15, N-(2,3-Dihydro-benzo[1,4]dioxin-6-yl)-4-thiophen-2-yl-benzamide]: the melting point is 192 to 195 °C.
